Laboratory results: the supplement of paper PMC10307832

How the values were obtained:
Experiment in all cases: relative viability (nuclei count vs DMSO), 5 days (fraction); higher = more cells survive
NCI-H1437 = test system: NCI-H1437
Outline: (§1)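 Medians of duplicate plates are given as relative viability. That measure is the nuclei count in treated wells divided by the count in vehicle wells. Counts were taken on 4× images of lung cancer cell lines in 1536-well plates, 5 days after pin-tool dosing the day after seeding with one drug alone or a fixed anchor-drug dose plus five library-drug doses (not always all listed) in √10 steps.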

CAL-12T = test system: CAL-12T
Outline: as §1

NCI-H460 = test system: NCI-H460
Outline: as §1

NCI-H1755 = test system: NCI-H1755
Outline: as §1

EMC-BAC-2 = test system: EMC-BAC-2
Outline: as §1

LCLC-103H = test system: LCLC-103H
Outline: as §1

HCC-366 = test system: HCC-366
Outline: as §1

NCI-H727 = test system: NCI-H727
Outline: as §1

NCI-H2009 = test system: NCI-H2009
Outline: as §1

NCI-H2228 = test system: NCI-H2228
Outline: as §1

SK-LU-1 = test system: SK-LU-1
Outline: as §1

NCI-H1915 = test system: NCI-H1915
Outline: as §1

NCI-H23 = test system: NCI-H23
Outline: as §1

HOP-62 = test system: HOP-62
Outline: as §1

NCI-H1355 = test system: NCI-H1355
Outline: as §1

SW 1573 = test system: SW 1573
Outline: as §1

HCC-827 = test system: HCC-827
Outline: as §1

NCI-H1975 = test system: NCI-H1975
Outline: as §1

A-427 = test system: A-427
Outline: as §1

NCI-H1792 = test system: NCI-H1792
Outline: as §1

COR-L 105 = test system: COR-L 105
Outline: as §1

HARA = test system: HARA
Outline: as §1

With `COc1cc(N2CCC(C(N)=O)CC2)ccc1Nc1nc(N)c(Cl)c(Nc2ccccc2S(=O)(=O)C(C)C)n1` [HG-5-88-01] + C[C@@H](Oc1cc(-c2cnn(C3CCNCC3)c2)cnc1N)c1c(Cl)ccc(F)c1Cl [Crizotinib] (partner 1 µM) as the molecule, how does the relative viability (NCI-H1437; first compound 0.04 µM) read?
The relative viability was 0.896.

And the relative viability (NCI-H1437; first compound 0.1265 µM)?
Its relative viability is 0.927.

What about the relative viability (NCI-H1437; first compound 0.4 µM) of the same molecule?
Its relative viability is 0.899.

And the relative viability (NCI-H1437; first compound 1.265 µM)?
The relative viability was 0.822.

And the relative viability (NCI-H1437; first compound 4 µM)?
Its relative viability is 1.03.

And the relative viability (CAL-12T; first compound 0.04 µM)?
The relative viability was 0.589.

What about the relative viability (CAL-12T; first compound 0.1265 µM) of the same molecule?
The relative viability was 0.671.

And the relative viability (CAL-12T; first compound 0.4 µM)?
Its relative viability is 0.421.

And the relative viability (CAL-12T; first compound 1.265 µM)?
Its relative viability is 0.432.

And the relative viability (CAL-12T; first compound 4 µM)?
Its relative viability is 0.183.

And the relative viability (NCI-H460; first compound 0.04 µM)?
The relative viability was 0.83.

And the relative viability (NCI-H460; first compound 0.1265 µM)?
Its relative viability is 1.06.

What about the relative viability (NCI-H460; first compound 0.4 µM) of the same molecule?
The relative viability was 0.851.

What about the relative viability (NCI-H460; first compound 1.265 µM) of the same molecule?
The relative viability was 0.843.

What about the relative viability (NCI-H460; first compound 4 µM) of the same molecule?
The relative viability was 0.0524.

And the relative viability (NCI-H1755; first compound 0.1265 µM)?
Its relative viability is 0.86.

What about the relative viability (NCI-H1755; first compound 0.4 µM) of the same molecule?
The relative viability was 0.854.

What about the relative viability (NCI-H1755; first compound 1.265 µM) of the same molecule?
Its relative viability is 0.768.

And the relative viability (NCI-H1755; first compound 4 µM)?
The relative viability was 0.933.

And the relative viability (EMC-BAC-2; first compound 0.04 µM)?
The relative viability was 0.776.

What about the relative viability (EMC-BAC-2; first compound 0.1265 µM) of the same molecule?
The relative viability was 0.748.

What about the relative viability (EMC-BAC-2; first compound 0.4 µM) of the same molecule?
The relative viability was 0.769.

And the relative viability (EMC-BAC-2; first compound 1.265 µM)?
Its relative viability is 0.77.

And the relative viability (EMC-BAC-2; first compound 4 µM)?
The relative viability was 0.667.

What about the relative viability (LCLC-103H; first compound 0.04 µM) of the same molecule?
The relative viability was 0.987.

And the relative viability (LCLC-103H; first compound 0.1265 µM)?
Its relative viability is 0.955.

What about the relative viability (LCLC-103H; first compound 0.4 µM) of the same molecule?
The relative viability was 0.95.

What about the relative viability (LCLC-103H; first compound 1.265 µM) of the same molecule?
Its relative viability is 0.923.

What about the relative viability (LCLC-103H; first compound 4 µM) of the same molecule?
Its relative viability is 0.985.

And the relative viability (HCC-366; first compound 0.04 µM)?
The relative viability was 0.642.

And the relative viability (HCC-366; first compound 0.1265 µM)?
The relative viability was 0.487.

What about the relative viability (HCC-366; first compound 0.4 µM) of the same molecule?
The relative viability was 0.468.

What about the relative viability (HCC-366; first compound 1.265 µM) of the same molecule?
Its relative viability is 0.441.

And the relative viability (HCC-366; first compound 4 µM)?
Its relative viability is 0.198.

What about the relative viability (NCI-H727; first compound 0.04 µM) of the same molecule?
The relative viability was 0.931.

And the relative viability (NCI-H727; first compound 0.1265 µM)?
Its relative viability is 0.937.

What about the relative viability (NCI-H727; first compound 0.4 µM) of the same molecule?
Its relative viability is 0.827.

And the relative viability (NCI-H727; first compound 1.265 µM)?
Its relative viability is 0.492.

And the relative viability (NCI-H727; first compound 4 µM)?
The relative viability was 0.585.

And the relative viability (NCI-H2009; first compound 0.04 µM)?
The relative viability was 1.05.

And the relative viability (NCI-H2009; first compound 0.1265 µM)?
Its relative viability is 1.03.

What about the relative viability (NCI-H2009; first compound 0.4 µM) of the same molecule?
The relative viability was 0.938.

And the relative viability (NCI-H2009; first compound 1.265 µM)?
The relative viability was 0.962.

And the relative viability (NCI-H2009; first compound 4 µM)?
The relative viability was 0.853.

And the relative viability (NCI-H2228; first compound 0.04 µM)?
The relative viability was 0.677.

What about the relative viability (NCI-H2228; first compound 0.1265 µM) of the same molecule?
The relative viability was 0.464.

What about the relative viability (NCI-H2228; first compound 0.4 µM) of the same molecule?
Its relative viability is 0.454.

And the relative viability (NCI-H2228; first compound 1.265 µM)?
Its relative viability is 0.427.

What about the relative viability (NCI-H2228; first compound 4 µM) of the same molecule?
Its relative viability is 0.307.

And the relative viability (SK-LU-1; first compound 0.04 µM)?
The relative viability was 1.04.

And the relative viability (SK-LU-1; first compound 0.1265 µM)?
The relative viability was 0.793.

What about the relative viability (SK-LU-1; first compound 0.4 µM) of the same molecule?
Its relative viability is 0.867.

And the relative viability (SK-LU-1; first compound 1.265 µM)?
Its relative viability is 0.845.

And the relative viability (SK-LU-1; first compound 4 µM)?
Its relative viability is 0.595.

And the relative viability (NCI-H1915; first compound 0.04 µM)?
The relative viability was 0.926.

And the relative viability (NCI-H1915; first compound 0.1265 µM)?
The relative viability was 0.885.

What about the relative viability (NCI-H1915; first compound 0.4 µM) of the same molecule?
Its relative viability is 0.906.

What about the relative viability (NCI-H1915; first compound 1.265 µM) of the same molecule?
The relative viability was 0.928.

What about the relative viability (NCI-H1915; first compound 4 µM) of the same molecule?
Its relative viability is 0.808.

And the relative viability (NCI-H23; first compound 0.04 µM)?
Its relative viability is 0.542.

What about the relative viability (NCI-H23; first compound 0.1265 µM) of the same molecule?
The relative viability was 0.43.

What about the relative viability (NCI-H23; first compound 0.4 µM) of the same molecule?
The relative viability was 0.481.

What about the relative viability (NCI-H23; first compound 1.265 µM) of the same molecule?
The relative viability was 0.471.

And the relative viability (NCI-H23; first compound 4 µM)?
The relative viability was 0.26.

What about the relative viability (HOP-62; first compound 0.04 µM) of the same molecule?
Its relative viability is 0.894.

And the relative viability (HOP-62; first compound 0.1265 µM)?
The relative viability was 1.12.

And the relative viability (HOP-62; first compound 0.4 µM)?
The relative viability was 0.83.

And the relative viability (HOP-62; first compound 1.265 µM)?
Its relative viability is 0.925.

And the relative viability (HOP-62; first compound 4 µM)?
Its relative viability is 0.96.

And the relative viability (NCI-H1355; first compound 0.04 µM)?
The relative viability was 1.19.

And the relative viability (NCI-H1355; first compound 0.1265 µM)?
The relative viability was 1.05.

What about the relative viability (NCI-H1355; first compound 0.4 µM) of the same molecule?
The relative viability was 1.02.

And the relative viability (NCI-H1355; first compound 1.265 µM)?
The relative viability was 0.983.

And the relative viability (NCI-H1355; first compound 4 µM)?
The relative viability was 0.972.

And the relative viability (SW 1573; first compound 0.04 µM)?
The relative viability was 0.806.

And the relative viability (SW 1573; first compound 0.1265 µM)?
The relative viability was 0.848.

What about the relative viability (SW 1573; first compound 0.4 µM) of the same molecule?
Its relative viability is 0.907.

And the relative viability (SW 1573; first compound 1.265 µM)?
Its relative viability is 0.568.

What about the relative viability (SW 1573; first compound 4 µM) of the same molecule?
Its relative viability is 0.475.

And the relative viability (HCC-827; first compound 0.04 µM)?
The relative viability was 0.946.

And the relative viability (HCC-827; first compound 0.1265 µM)?
The relative viability was 0.917.

What about the relative viability (HCC-827; first compound 0.4 µM) of the same molecule?
The relative viability was 0.94.

What about the relative viability (HCC-827; first compound 1.265 µM) of the same molecule?
The relative viability was 0.831.

And the relative viability (HCC-827; first compound 4 µM)?
Its relative viability is 0.392.

What about the relative viability (NCI-H1975; first compound 0.04 µM) of the same molecule?
Its relative viability is 1.03.

What about the relative viability (NCI-H1975; first compound 0.1265 µM) of the same molecule?
Its relative viability is 1.03.

What about the relative viability (NCI-H1975; first compound 0.4 µM) of the same molecule?
The relative viability was 0.821.

And the relative viability (NCI-H1975; first compound 1.265 µM)?
The relative viability was 0.794.

And the relative viability (NCI-H1975; first compound 4 µM)?
The relative viability was 0.334.

What about the relative viability (A-427; first compound 0.04 µM) of the same molecule?
The relative viability was 0.93.

And the relative viability (A-427; first compound 0.1265 µM)?
The relative viability was 0.952.

And the relative viability (A-427; first compound 0.4 µM)?
Its relative viability is 0.951.

And the relative viability (A-427; first compound 1.265 µM)?
Its relative viability is 0.843.

What about the relative viability (A-427; first compound 4 µM) of the same molecule?
The relative viability was 0.791.

And the relative viability (NCI-H1792; first compound 0.04 µM)?
The relative viability was 1.11.

And the relative viability (NCI-H1792; first compound 0.1265 µM)?
The relative viability was 0.968.

What about the relative viability (NCI-H1792; first compound 0.4 µM) of the same molecule?
The relative viability was 0.869.

And the relative viability (NCI-H1792; first compound 1.265 µM)?
Its relative viability is 0.947.

And the relative viability (NCI-H1792; first compound 4 µM)?
The relative viability was 0.978.

And the relative viability (COR-L 105; first compound 0.04 µM)?
Its relative viability is 0.855.

And the relative viability (COR-L 105; first compound 0.1265 µM)?
The relative viability was 0.728.

And the relative viability (COR-L 105; first compound 0.4 µM)?
The relative viability was 0.519.

What about the relative viability (COR-L 105; first compound 1.265 µM) of the same molecule?
The relative viability was 0.346.

And the relative viability (COR-L 105; first compound 4 µM)?
The relative viability was 0.366.

What about the relative viability (HARA; first compound 0.04 µM) of the same molecule?
Its relative viability is 1.09.

And the relative viability (HARA; first compound 0.1265 µM)?
Its relative viability is 0.891.

What about the relative viability (HARA; first compound 0.4 µM) of the same molecule?
Its relative viability is 1.08.

What about the relative viability (HARA; first compound 1.265 µM) of the same molecule?
The relative viability was 1.08.

And the relative viability (HARA; first compound 4 µM)?
Its relative viability is 0.695.
